The values that follow come from ChEMBL document CHEMBL1201862, “PubChem BioAssay data set” (2004).

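Where inhibition never reached the appropriate level, the endpoint shown equals the highest concentration tested. Otherwise, values were interpolated linearly from a five-concentration, 48-hour dose response in 96-well plates. Here, GI50 denotes the concentration required for 50% inhibition of growth.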 Activity calls are given as the source filed them. Rule as the data show it: active = GI50 up to about 1.1 µM and inactive = higher. Some results are limits rather than exact numbers.

Among the test systems are IGROV-1; NCI-H23; SF-295; M14; SF-539; EKVX; CCRF-CEM; U-251; SK-MEL-28; Malme-3M; OVCAR-5; NCI-H226; SK-OV-3; SNB-75; HOP-92; LOX IMVI; HT-29; K562; OVCAR-8; OVCAR-4.
What all share (assay): inhibition of tumour cell growth, NCI panel, 48 h

`Cc1ccc(S(=O)(=O)NNC2Oc3cc4c(cc3C(c3ccccc3O)C2C)OCO4)cc1` (stereo not given): the GI50 in the test with IGROV-1 was 12.4 µM (inactive); in the test on NCI-H23, 15.7 µM (inactive); in the test on SF-295, 11.6 µM (inactive); with M14, 13.4 µM (inactive); in the test with SF-539 it was 16.9 µM (inactive); in the test on EKVX, 10.7 µM (inactive). The GI50 is 10.2 µM (inactive) with CCRF-CEM; 10.3 µM (inactive) in the test on U-251; 15.6 µM (inactive) in the test with SK-MEL-28; 12.2 µM (inactive) with Malme-3M; 16.1 µM (inactive) in the test on OVCAR-5; 12.4 µM (inactive) in the test with NCI-H226. The GI50 in the test with SK-OV-3 is 21.7 µM (inactive); with SNB-75 it was 10.9 µM (inactive); with HOP-92 it was 17.1 µM (inactive); with LOX IMVI it was 15.2 µM (inactive); in the test on HT-29, 14.3 µM (inactive); with K562 it was 11.1 µM (inactive).
For the molecule `CCOc1cc2c(cc1O)C(O)C[C@@H]1[C@@H]2CC[C@]2(C)[C@@H](O)CC[C@@H]12` (stereo not given in full), the GI50 is 0.431 µM (active) with IGROV-1; 0.766 µM (active) in the test with NCI-H23; 0.281 µM (active) in the test with SF-295; 0.575 µM (active) with M14; 0.885 µM (active) with OVCAR-8; 0.28 µM (active) in the test with SF-539. The GI50 in the test on EKVX is 1.32 µM (inactive); with CCRF-CEM it was 0.298 µM (active); with U-251 it was 0.394 µM (active); with Malme-3M it was 0.307 µM (active); in the test with OVCAR-5 it was 52.2 µM (inactive); with NCI-H226, 0.552 µM (active). The GI50 was 0.493 µM (active) in the test on SK-OV-3; 0.619 µM (active) in the test on SNB-75; 12.5 µM (inactive) in the test with HOP-92; 0.299 µM (active) with LOX IMVI; > 100 µM (inactive) with OVCAR-4; 4.44 µM (inactive) in the test on HT-29. Moreover, in the test with K562, the GI50 was 0.0991 µM (active).
For the molecule `CCCCCCCCCCCCCCCCOCC(COP(=O)([O-])OCC[N+](C)(C)C)OCCCCCCCCCCCCCCCC` (stereo not given), the GI50 in the test on IGROV-1, in the test with NCI-H23, in the test with SF-295, in the test on OVCAR-8, in the test with SF-539 and in the test with EKVX was > 100 µM (inactive) throughout. Besides, the GI50 with CCRF-CEM, in the test on U-251, in the test on SK-MEL-28, in the test on Malme-3M, in the test with OVCAR-5 and in the test with NCI-H226 was > 100 µM (inactive) each time. Moreover, the GI50 in the test with SK-OV-3, in the test with SNB-75, in the test with HOP-92, in the test with LOX IMVI, with OVCAR-4 and with HT-29 was > 100 µM (inactive) throughout. Further, in the test on K562, the GI50 is > 100 µM (inactive).
With `COc1cc2c(c(OC)c1OC)-c1[nH]ncc1CC2`, the GI50 with IGROV-1, in the test with NCI-H23, in the test on SF-295, with M14, in the test with OVCAR-8 and in the test with SF-539 was > 100 µM (inactive) throughout. The GI50 in the test on EKVX, in the test with CCRF-CEM, in the test on U-251, in the test on SK-MEL-28, with Malme-3M and in the test on OVCAR-5 was > 100 µM (inactive) each time. Further, the GI50 with NCI-H226, in the test on SK-OV-3, in the test on SNB-75, with HOP-92, in the test on LOX IMVI and in the test on HT-29 was > 100 µM (inactive) throughout. Also, the GI50 in the test on K562 was > 100 µM (inactive).
In the case of `Nc1c(C(=O)Nc2ccc(C3=NCCN3)cc2)cccc1C(=O)Nc1ccc(C2=NCCN2)cc1`, the GI50 was > 100 µM (inactive) in the test with IGROV-1; > 100 µM (inactive) in the test with NCI-H23; > 100 µM (inactive) in the test on SF-295; 65.3 µM (inactive) in the test with OVCAR-8; > 100 µM (inactive) with SF-539; > 100 µM (inactive) with CCRF-CEM. Further, the GI50 in the test on U-251 was 53.5 µM (inactive); in the test on SK-MEL-28, > 100 µM (inactive); with Malme-3M, > 100 µM (inactive); in the test with OVCAR-5, > 100 µM (inactive); with NCI-H226, > 100 µM (inactive); in the test with SK-OV-3, > 100 µM (inactive). Also, the GI50 was > 64.9 µM (inactive) in the test with SNB-75; > 100 µM (inactive) with HOP-92; > 100 µM (inactive) with LOX IMVI; > 100 µM (inactive) with OVCAR-4; > 100 µM (inactive) in the test with HT-29; > 100 µM (inactive) in the test with K562.
Regarding `COc1cc2c(cc1Oc1c(Oc3c(O)c(OC)cc4c3C(CC(C)C)N(C)CC4)c(OC)cc3c1C(CC(C)C)N(C)CC3)C(CC(C)C)N(C)CC2` (stereo not given), the GI50 is 3.02 µM (inactive) in the test on IGROV-1; 0.787 µM (active) with NCI-H23; 0.904 µM (active) with SF-295; 0.618 µM (active) in the test with OVCAR-8; 0.376 µM (active) in the test with SF-539; 0.528 µM (active) in the test on EKVX. The GI50 in the test on CCRF-CEM is 0.8 µM (active); in the test on U-251, 0.492 µM (active); with SK-MEL-28, 0.897 µM (active); in the test with Malme-3M, 1.11 µM (active); in the test on OVCAR-5, 5.11 µM (inactive); in the test on NCI-H226 it was 0.422 µM (active). Also, the GI50 with SK-OV-3 was 1.12 µM (active); in the test with SNB-75, 0.611 µM (active); with HOP-92, 0.465 µM (active); with LOX IMVI it was 0.931 µM (active); with OVCAR-4, 1.12 µM (inactive); in the test with HT-29 it was 0.547 µM (active). Moreover, in the test with K562, the GI50 is 1.02 µM (active).
Consider `CC1C(NNC(N)=O)Oc2cc3c(cc2C1c1ccccc1O)OCO3` (stereo not given), for which the GI50 in the test with IGROV-1 is 26.3 µM (inactive); with NCI-H23, 89.9 µM (inactive); in the test on SF-295, 27 µM (inactive); in the test on M14, 39.3 µM (inactive); in the test on SF-539 it was 24.2 µM (inactive); with EKVX, 66.8 µM (inactive). Further, the GI50 with CCRF-CEM was 15.6 µM (inactive); in the test with U-251, 38.7 µM (inactive); in the test with SK-MEL-28, 31 µM (inactive); in the test with Malme-3M it was 28.6 µM (inactive); in the test with OVCAR-5, > 100 µM (inactive); with NCI-H226, 34.6 µM (inactive). Further, the GI50 in the test with SK-OV-3 was 41.4 µM (inactive); in the test on SNB-75 it was 27.9 µM (inactive); with HOP-92 it was 16.5 µM (inactive); in the test on LOX IMVI, 46.7 µM (inactive); in the test on HT-29, 34 µM (inactive); with K562, 22.2 µM (inactive).
As for `O=C(/C=C/CC(O)(c1ccccc1)c1ccccc1)Nc1ccccc1Cl`, the GI50 in the test on NCI-H23, with SF-295, with M14, in the test with OVCAR-8, with EKVX and with CCRF-CEM was > 100 µM (inactive) each time. Moreover, the GI50 with U-251 is > 100 µM (inactive); in the test with SK-MEL-28, > 100 µM (inactive); in the test with Malme-3M it was 45.3 µM (inactive); with OVCAR-5, > 100 µM (inactive); with NCI-H226, > 100 µM (inactive); in the test on SK-OV-3, > 100 µM (inactive). Besides, the GI50 was 28.1 µM (inactive) with SNB-75; > 100 µM (inactive) in the test with HOP-92; > 100 µM (inactive) in the test with OVCAR-4; > 100 µM (inactive) in the test with HT-29; > 100 µM (inactive) with K562.
With `O=C1C(=O)c2cc([N+](=O)[O-])ccc2-c2ccc([N+](=O)[O-])cc21`, the GI50 with IGROV-1 is 0.748 µM (active); in the test with NCI-H23, 0.682 µM (active); in the test on SF-295, 1.71 µM (inactive); in the test with OVCAR-8, 0.351 µM (active); in the test with SF-539, 0.741 µM (active); in the test on EKVX, 2.04 µM (inactive). Also, the GI50 in the test on CCRF-CEM is 0.289 µM (active); in the test with U-251, 0.773 µM (active); in the test with SK-MEL-28, 1.99 µM (inactive); with Malme-3M it was 1.97 µM (inactive); in the test on OVCAR-5, 3.27 µM (inactive); in the test on NCI-H226, 1.51 µM (inactive). Besides, the GI50 in the test with SK-OV-3 is 2.51 µM (inactive); in the test with SNB-75, 2.14 µM (inactive); in the test with HOP-92 it was 0.21 µM (active); with LOX IMVI it was 0.346 µM (active); in the test with OVCAR-4 it was 0.322 µM (active); with HT-29, 7.46 µM (inactive). The GI50 in the test with K562 is 0.395 µM (active).
On to `CCN(CC)c1c(C)c(C(=O)OC)nn1-c1ccccc1`, for which the GI50 in the test with IGROV-1 was > 100 µM (inactive); with NCI-H23, 33.6 µM (inactive); with SF-295, > 83.6 µM (inactive); in the test with OVCAR-8, > 100 µM (inactive); with SF-539, > 100 µM (inactive); with EKVX, > 81.1 µM (inactive). Besides, the GI50 in the test with CCRF-CEM was 63.1 µM (inactive); in the test on U-251, 61.1 µM (inactive); with SK-MEL-28 it was > 100 µM (inactive); with Malme-3M, > 96.6 µM (inactive); in the test with OVCAR-5 it was > 100 µM (inactive); in the test with NCI-H226 it was > 77.1 µM (inactive). Further, the GI50 was > 100 µM (inactive) in the test on SK-OV-3; > 100 µM (inactive) with SNB-75; 71 µM (inactive) in the test with HOP-92; 86.5 µM (inactive) in the test with LOX IMVI; > 100 µM (inactive) in the test on OVCAR-4; 70.3 µM (inactive) in the test on HT-29. Further, the GI50 in the test on K562 is 36.9 µM (inactive).
